The assay is described as follows: Inhibition of calcium stimulated Mycobacterium tuberculosis H37Ra CtpF mutant ATPase activity using Na2ATP as substrate preincubated for 30 mins followed by substrate addition and measured after 30 mins by colorimetric analysis.

Broadly, the IC50 is the midpoint of a concentration-inhibition curve.

With `CCC[C@H](C)NC(=O)CSc1nc2cc(S(=O)(=O)Nc3ccccc3OC)ccc2o1`, the IC50 was found to be 109 µM.
For `NS(=O)(=O)[C@H]1CC=C(CNC(=O)CCCc2c[nH]c3ccccc23)S1`, the IC50 was 100 µM.
Then `CCCCC(=O)Nc1cccc(C(=O)NCCCNc2cccnc2)c1`, with 96.9 µM; and `C[C@@H](OC(=O)CCCNC1=NS(=O)(=O)c2ccccc21)C(=O)c1c[nH]c2ccccc12`, with 102 µM.
Then `O=C(CCCC[C@@H]1SC[C@@H]2NC(=O)N[C@@H]21)NCc1cn(-c2ccccc2)nc1-c1ccccc1`, with 76.1 µM.
Turning to `CC(=O)C1=C(O)[C@@H]2[C@H]3c4c[nH]c5cccc(c45)C[C@H]3C(C)(C)N2C1=O` [CYCLOPIAZONIC ACID], the IC50 was 94.5 µM.
In the case of `COCC(=O)Nc1c(C(=O)OC)n(CCC(C)C)c2ncc(N[C@@H](C)C(C)(C)O)cc12` it was 38.4 µM.

(Values after ChEMBL document CHEMBL4610027, “Identification of Mycobacterium tuberculosis CtpF as a target for designing new antituberculous compounds” (Bioorg Med Chem, 2020).)
